The values below are quoted from earlier work in US20110110985A1, “FUNCTIONALIZED NANOMATERIALS FOR CHELATION THERAPIES AND SORBENT DIALYSIS OF TOXINS” (priority 2009, published 2011).

The structures appear in SMILES notation.

For data set [1] the following is noted: given orally to rats.
For data set [2] the following is noted: day of chelation vs one and two days prior to treatment.
The conditions of data set [3]: given in the first 24 hours.

In the case of `O=C(O)[C@@H](S)[C@@H](S)C(=O)O` [DMSA, meso-2,3-dimercaptosuccinic acid], the “change of Ca and Zn in carcass, Fe and Cu in liver, kidney, or brain” value in data set [1] is given as “did not significantly change”.

Take `O=C(O)CN(CCN(CC(=O)O)CC(=O)O)CC(=O)O` [EDTA, ethylenediamine-tetraacetate]: in data set [2], the “increase of urinary excretion of Ca” value is recorded as 2 fold and the “increase of urinary excretion of Zn” value is given as 18 fold.

Turning to `O=C(O)CN(CCN(CC(=O)O)CC(=O)O)CCN(CC(=O)O)CC(=O)O` [Ca-DTPA, diethylenetriaminepentaacetic acid], in data set [3], the “effectiveness relative to Zn-DTPA” value was 10 fold.
